Experimental data from PMC7321065, “Discovery of New Schiff Bases Tethered Pyrazole Moiety: Design, Synthesis, Biological Evaluation, and Molecular Docking Study as Dual Targeting DHFR/DNA Gyrase Inhibitors with Immunomodulatory Activity” (Molecules, 2020).
Values after ≈ are worked out from the molar mass of the structure shown.

How the values were obtained:
Escherichia coli [1] = experiment: Inhibition zone, agar plate diffusion; assay type: cell-based; conditions: read-out: Inhibition zone (IZ)
Protocol: (§1) Antimicrobial activities of the newly formed Schiff bases (6a–d, 7a–d, 8a–d, and 9a–d) and reference drugs were evaluated against three Gram-positive, three Gram-negative, and two fungi strain at Al-Azhar University, Cairo, Egypt. The inhibition zones (IZ, in mm ± standard deviation) and the minimal inhibitory concentration (MIC) (μg/mL) were determined by the conventional paper disk diffusion method.
(§2) In Vitro Antimicrobial Activities
(§3) The antimicrobial activities inhibition zone (IZ, mm±standard deviation) of pyrazole Schiff bases ( 6a-d , 7a-d, 8a-d and 9a-d ) was measurement according to the agar plate diffusion method. Briefly, 100 µl of the […]
(§4) […] of each sample (at 0.5 mg/mL) was added to each well (10 mm diameter holes cut in the agar gel). The plates were incubated for 24 h at 37 °C (for bacteria and yeast) and for 72 h at 27 °C (for filamentous fungi), each test was repeated three times. After incubation, the microorganism's growth was observed. […]
(§5) drugs while Amphotericin B was used as standard antifungal drug. The resulting inhibition zone diameters were measured in millimeters and used as criterion for the antimicrobial activity. Solvent controls (DMSO) were included in every experiment as negative controls. DMSO was used for dissolving […]
(§6) the tested microorganisms. […]

Pseudomonas aeruginosa [2] = experiment: Inhibition zone, agar plate diffusion; assay type: cell-based; conditions: read-out: Inhibition zone (IZ)
Protocol: as §1, §2, §3, §4, §5, §6

Bacillus subtilis [3] = experiment: Inhibition zone, agar plate diffusion; assay type: cell-based; conditions: read-out: Inhibition zone (IZ)
Protocol: as §1, §2, §3, §4, §5, §6

Enterococcus faecalis [4] = experiment: Inhibition zone, agar plate diffusion; assay type: cell-based; conditions: read-out: Inhibition zone (IZ)
Protocol: as §1, §2, §3, §4, §5, §6

[5] = system: S. aureus ATCC 43300 (MRSA); experiment: MIC/MBC against MDRB, paper disk diffusion; assay type: cell-based; conditions: Staphylococcus aureus
Text: (§7) The inhibition zone (IZ, mm±standard deviation) of pyrazole Schiff bases ( 6b, 7b, 7c, 8a, 8d and 9b) was
(§8) measurement according to the agar plate diffusion method against a panel of multidrug-resistant bacteria
(MDRB). […]

[6] = system: P. aeruginosa ATCC BAA-2111; experiment: MIC/MBC against MDRB, paper disk diffusion; assay type: cell-based; conditions: Pseudomonas aeruginosa, ATCCBAA2111
Text: as §7, §8
(MDRB). […]

S. aureus ATCC 33591 [7] = experiment: MIC/MBC against MDRB, paper disk diffusion; assay type: cell-based; conditions: Staphylococcus aureus, ATCC33591
Text: as §7, §8
(MDRB). […]

E. coli ATCC BAA-196 [8] = experiment: MIC/MBC against MDRB, paper disk diffusion; assay type: cell-based; conditions: Escherichia coli, ATCCBAA196
Text: as §7, §8
(MDRB). […]

Escherichia coli [9] = experiment: MIC/MBC, paper disk diffusion; assay type: cell-based; conditions: Escherichia coli
Protocol: as §1
(§9) In Vitro Antimicrobial Activities […]
(§10) DMSO was used for dissolving […]
(§11) the tested microorganisms.
(§12) The minimum inhibitory concentration (MIC), the minimum bactericidal concentration (MBC, µg/ml) and […]
(§13) and 9b) were determined by the conventional technique termed paper disk diffusion, by applying paper […]
(§14) Bacteria were grown on nutrient agar medium, while fungi and yeast were grown on Sabouraud agar medium. The purified streptomycin was dissolved in […]
(§15) inoculated with test organism. Growth inhibition was examined after 24 hr. from incubation at 37 °C for bacteria and after 72 hr. incubation at 27 °C for fungi and yeast. Each test was repeated three times. MIC was expressed as the lowest concentration inhibiting test organism’s growth. […]

Salmonella typhi [10] = experiment: MIC/MBC, paper disk diffusion; assay type: cell-based
Protocol: as §1, §9, §10, §11, §12, §13, §14, §15

Pseudomonas aeruginosa [11] = experiment: MIC/MBC, paper disk diffusion; assay type: cell-based; conditions: Pseudomonas aeruginosa
Protocol: as §1, §9, §10, §11, §12, §13, §14, §15

Bacillus subtilis [12] = experiment: MIC/MBC, paper disk diffusion; assay type: cell-based
Protocol: as §1, §9, §10, §11, §12, §13, §14, §15

Staphylococcus aureus [13] = experiment: MIC/MBC, paper disk diffusion; assay type: cell-based
Protocol: as §1, §9, §10, §11, §12, §13, §14, §15

Enterococcus faecalis [14] = experiment: MIC/MBC, paper disk diffusion; assay type: cell-based
Protocol: as §1, §9, §10, §11, §12, §13, §14, §15

[15] = system: mammary gland breast cancer cell line (MCF-7); experiment: Antiproliferative activity, MTT assay; assay type: cell-based, human; conditions: Homo sapiens, MCF7, 48 h, read-out: IC50 MCF-7
Protocol: (§16) 3-[4, 5-Dimethyl-2-thiazolyl)-2, 5-diphenyl-2 H-tetrazolium bromide (MTT) protocol is based on the cleavage of the tetrazolium salt by mitochondrial dehydrogenases in viable cells. Cells were dispensed in a 96 well sterile microplate (5 x 10^4 cells/well), and incubated at 37 °C with series of different concentrations, in DMSO, of each tested compound or Doxorubicin ® (positive control) for 48 h in a serum free medium prior to the MTT assay. After incubation, media were carefully removed, 40 µL of MTT (2.5 mg/mL) were added to each well and then incubated for an additional 4 h. The purple formazan dye crystals were solubilized by the addition of 200 µL of DMSO. The absorbance was measured at 590 nm using a SpectraMax® Paradigm® Multi-Mode microplate reader. The relative cell viability was expressed as the mean percentage of viable cells compared to the untreated control cells.
(§17) All experiments were conducted in triplicate and repeated in three different days. All the values were represented as mean ± SD. IC 50s were determined by probit analysis using SPSS software program (SPSS

[16] = system: hepatocellular carcinoma cell line (HepG2); experiment: Antiproliferative activity, MTT assay; assay type: cell-based, human
Protocol: as §16, §17

Candida albicans [17] = experiment: MIC/MFC, paper disk diffusion; assay type: cell-based; conditions: Candida albicans
Protocol: as §1, §9, §10, §11, §12, §13, §14, §15

Fusarium oxysporum [18] = experiment: MIC/MFC, paper disk diffusion; assay type: cell-based; conditions: Fusarium oxysporum
Protocol: as §1, §9, §10, §11, §12, §13, §14, §15

E. coli ATCC BAA-196 [19] = experiment: Inhibition zone against MDRB, agar plate diffusion; assay type: cell-based
Candida albicans [20] = experiment: Inhibition zone, agar plate diffusion; assay type: cell-based; conditions: read-out: Inhibition zone (IZ)
Protocol: as §1, §2, §3, §4, §5, §6
(§18) Bacteria were grown on nutrient agar medium, while fungi and yeast were grown on Sabouraud agar medium. […]

Salmonella typhi [21] = experiment: Inhibition zone, agar plate diffusion; assay type: cell-based; conditions: Salmonella enterica, St, mm ± standard deviation, sample at 0.5 mg/mL, read-out: Inhibition zone (IZ)
Protocol: as §1, §2, §3, §4, §5, §6, §18

Staphylococcus aureus [22] = experiment: Inhibition zone, agar plate diffusion; assay type: cell-based; conditions: read-out: Inhibition zone (IZ)
Protocol: as §1, §2, §3, §4, §5, §6, §18

Fusarium oxysporum [23] = experiment: Inhibition zone, agar plate diffusion; assay type: cell-based; conditions: read-out: Inhibition zone (IZ)
Protocol: as §1, §2, §3, §4, §5, §6, §18

[24] = system: P. aeruginosa ATCC BAA-2111; experiment: Inhibition zone against MDRB, agar plate diffusion; assay type: cell-based
S. aureus ATCC 33591 [25] = experiment: Inhibition zone against MDRB, agar plate diffusion; assay type: cell-based
[26] = system: S. aureus ATCC 43300 (MRSA); experiment: Inhibition zone against MDRB, agar plate diffusion; assay type: cell-based

SMILES: COc1ccc(Nc2n[nH]c(N=Cc3c(C)nn(-c4ccccc4)c3Cl)c2C(=O)Nc2ccccc2)cc1 [7b, 5-((5-Chloro-3-methyl-1-phenyl-1H-pyrazol-4-yl)methyleneamino)-3-(p-methoxyphenylamino)-N-phenyl-1H-pyrazole-4-carboxamide]
- zone of inhibition at 500 µg/mL (Escherichia coli [1]): 21 ± 0.14 mm
- zone of inhibition at 500 µg/mL (Pseudomonas aeruginosa [2]): 24 ± 0.78 mm
- zone of inhibition at 500 µg/mL (Bacillus subtilis [3]): 28 ± 0.16 mm
- zone of inhibition at 500 µg/mL (Enterococcus faecalis [4]): 25 ± 0.3 mm
- MBC [5]: 15.6 µg/mL (≈ 29.7 µM)
- MIC [5]: 7.81 µg/mL (≈ 14.8 µM)
- MBC [6]: 15.6 µg/mL (≈ 29.7 µM)
- MIC [6]: 7.81 µg/mL (≈ 14.8 µM)
- MBC (S. aureus ATCC 33591 [7]): 16 µg/mL (≈ 30.4 µM)
- MIC (S. aureus ATCC 33591 [7]): 8.88 µg/mL (≈ 16.9 µM)
- MBC (E. coli ATCC BAA-196 [8]): 18.5 µg/mL (≈ 35.2 µM)
- MIC (E. coli ATCC BAA-196 [8]): 9.25 µg/mL (≈ 17.6 µM)
- MIC (Escherichia coli [9]): 7.81 µg/mL (≈ 14.8 µM)
- MBC (Escherichia coli [9]; E. coli): 12.5 µg/mL (≈ 23.7 µM)
- Fold more potent than Tetracycline (MIC) (Salmonella typhi [10]): 8 fold
- Fold more potent than the standard drug (MBC) (Salmonella typhi [10]; S. typhi): ~6.6 fold
- MIC (Salmonella typhi [10]; Salmonella enterica, S. typhi): 3.9 µg/mL (≈ 7.41 µM)
- MBC (Salmonella typhi [10]; Salmonella enterica, S. typhi, read-out: MBC): 6.63 µg/mL (≈ 12.6 µM)
- MIC (Pseudomonas aeruginosa [11]): 31.2 µg/mL (≈ 59.4 µM)
- MBC (Pseudomonas aeruginosa [11]; P. aeruginosa): 59.4 µg/mL (≈ 113 µM)
- Fold more potent than Tetracycline (MIC) (Bacillus subtilis [12]; B. subtilis): 5 fold
- MIC (Bacillus subtilis [12]; Bacillus subtilis): 5.57 µg/mL (≈ 10.6 µM)
- MBC (Bacillus subtilis [12]; Bacillus subtilis, B. subtilis): 10.6 µg/mL (≈ 20.1 µM)
- Fold more potent than Tetracycline (MIC) (Staphylococcus aureus [13]; S. aureus): 32 fold
- MIC (Staphylococcus aureus [13]; Staphylococcus aureus): 1.95 µg/mL (≈ 3.71 µM)
- MBC (Staphylococcus aureus [13]; Staphylococcus aureus, S. aureus): 3.7 µg/mL (≈ 7.03 µM)
- MIC (Enterococcus faecalis [14]): 3.9 µg/mL (≈ 7.41 µM)
- MBC (Enterococcus faecalis [14]; E. faecalis): 6.63 µg/mL (≈ 12.6 µM)
- IC50 [15]: 4.81 ± 0.25 µM
- Fold against doxorubicin (IC50) ([16]; HepG-2): 0.54 fold
- IC50 ([16]; Homo sapiens, HepG2, 48 h, read-out: IC50 HepG-2): 7.18 ± 0.49 µM
- MFC (Candida albicans [17]): 28.1 µg/mL (≈ 53.4 µM)
- MIC (Candida albicans [17]): 15.6 µg/mL (≈ 29.7 µM)
- MFC (Fusarium oxysporum [18]): 46.9 µg/mL (≈ 89.1 µM)
- MIC (Fusarium oxysporum [18]): 31.2 µg/mL (≈ 59.4 µM)
- Mean Diameter of Inhibition Zone against MDRB (E. coli ATCC BAA-196 [19]): 20 ± 0.44 mm
- zone of inhibition at 500 µg/mL (Candida albicans [20]): 21 ± 0.2 mm
- zone of inhibition at 500 µg/mL (Salmonella typhi [21]): 22 ± 0.12 mm
- zone of inhibition at 500 µg/mL (Staphylococcus aureus [22]): 23 ± 0.55 mm
- zone of inhibition at 500 µg/mL (Fusarium oxysporum [23]): 17 ± 0.45 mm
- Mean Diameter of Inhibition Zone against MDRB [24]: 21 ± 0.33 mm
- Mean Diameter of Inhibition Zone against MDRB (S. aureus ATCC 33591 [25]): 15 ± 0.41 mm
- Mean Diameter of Inhibition Zone against MDRB [26]: 18 ± 0.11 mm
